The results in this text go back to patent publication US20230122911A1, “FORMULATIONS OF ENZALUTAMIDE” (Astellas Pharma Inc., priority 2012, published 2023).

The nature of series [1]: Relative bioavailability of amorphous drug and spray-dried dispersions in rats (Example 12). It is filed as in vivo. Conditions: oral gavage 20 mg/kg, mean ± standard deviation. How it is done:
Five groups of jugular vein-cannulated CD® rats (n=6 per group) were dosed five enzalutamide formulations by oral gavage, at a dose of 20 mg/kg, in a volume of 2 ml/kg. Blood samples were obtained at 1, 3, 6, 12, 24, 36, 48, 60, and 72 hr post-dose.
The analytes, enzalutamide. MDPC0002, and MDPC0001 and internal standards (IS), N-^13CD3-enzalutamide, MDPC0002-^13CD3, and MDPC0001-^13CD3 were extracted from […], of rat plasma by a liquid-liquid extraction procedure. Internal standard working solution (25.0 µL) was added to all wells except the matrix blank. A 25.0 µL-volume of acetonitrile was added all matrix blank samples. After adding 200 µL of 5% sodium bicarbonate in water buffer solution, the plate was vortexed for approximately 10 seconds. A Tomtec Quadra 96-well pipettor was used to add […] of methyl tert-butyl ether (MTBE) to all wells, mixed, and approximately 1.00 mL of the organic layer was transferred to a clean 96-well plate. The samples were evaporated under heated nitrogen and reconstituted with 250 µL of 0.1% formic acid in methanol/water (40:60. v/v). The plate was covered and gently vortexed for approximately 10 seconds. The extracts were chromatographed under reverse phase conditions on an ACE 5 C18 HPLC 5 µm, 2.1 x 30 mm column. The compounds were detected and quantified by tandem mass spectrometry in positive ion mode on an MDS Sciex API 3000 equipped with a Turbo IONSPRAY® probe. Calibration curves were obtained by performing a linear regression (weighted ⅟x^2) of the data from the calibration standards.
Plasma enzalutamide concentration vs. time curves were prepared, and values for the following parameters were determined. Cmax max is the highest enzalutamide concentration observed for each rat. Tmax is the time that Cmax is first achieved. AUC0-72 is the area under the plasma enzalutamide concentration vs. time plot out to 72 hr post-dosing.

Series [2] can be described thus: Membrane-permeation (MP) dissolution test. It is filed as in vitro ADME. How it is done:
The membrane permeability test described in the Examples below is carried out as follows. A drug-permeable membrane is placed between feed and permeate reservoirs. A sufficient quantity of test composition is added to a feed test medium and placed in the feed reservoir, while a water immiscible organic solution, such as a 60/40 mixture of decanol/decane, is placed in the permeate reservoir. Samples are removed from the permeate reservoir and analyzed for the concentration of drug as a function of time. […] Further details of this membrane permeation test are disclosed in U.S. Pat. No 7,611,630 B2.
The MP-dissolution test, whose details are described above, measures a capability of low solubility drug formulations which is not measured in the microcentrifuge dissolution test utilized in Examples 4 and 7. This test mimics an aspect of the in vivo situation in the GI tract. In the in vivo situation, it is generally accepted that free drug in solution (i.e. individual drug molecules dissolved in the GI medium without association with formulation components) is the species which is absorbed across the gastrointestinal wall into the bloodstream. As free drug is absorbed, the formulation must be capable of supplying more free drug for absorption. The membrane permeation test measures the amount of drug which crosses a polymeric membrane (as a model of the GI wall) over time, and thus reflects the ability of the formulation to resupply free drug in solution to be further passively transported across the polymeric membrane. In Table 8.1 below, Maximum Flux is the maximum observed rate of permeation across the polymeric membrane, based on the slope of the absorption curve over any period within the 240 minute duration of the experiment, normalized for membrane area. Total drug recovery is the % of the initial drug dose which has crossed the membrane when the test ended at 240 minutes.

[3] abbreviates: rat plasma, listed as Spray-dried amorphous drug.

For the compound `CNC(=O)c1ccc(N2C(=S)N(c3ccc(C#N)c(C(F)(F)F)c3)C(=O)C2(C)C)cc1F` [Amorphous enzalutamide, 4-{3-[4-cyano-3-(trifluoromethyl)phenyl]-5,5-dimethyl-4-oxo-2-sulfanylideneimidazolidin-1-yl}-2-fluoro-N-methylbenzamide], in series [1] (setting [3]), the “AUC 0-72” value came to 121000 ± 16400 ng·h/mL; the Cmax (as a rule, the peak of the concentration-time curve) came to 7140 ± 970 ng/mL; the Tmax (usually the time from dosing to the highest level) is 2.55 ± 0.57 h. Also, in series [2] (Table 8.1, within 240 minute duration, normalized for membrane area, listed as Amorphous (spray-dried) enzalutamide), the “Maximum Flux” value amounted to 1.3 µg/cm^2×min.
Take `CNC(=O)c1ccc(N2C(=S)N(c3ccc(C#N)c(C(F)(F)F)c3)C(=O)C2(C)C)cc1F` [Control 1, 4-{3-[4-cyano-3-(trifluoromethyl)phenyl]-5,5-dimethyl-4-oxo-2-sulfanylideneimidazolidin-1-yl}-2-fluoro-N-methylbenzamide]: in series [1] (CD, rat, plasma, po, 20 mg/kg, read-out: AUC 0-72), the AUC(0-t) stood at 72700 ± 18400 ng·h/mL. In series [1] (rat plasma), the Cmax worked out at 3530 ± 660 ng/mL and the Tmax is 6.05 ± 0.92 h. For the same compound, the “Maximum Flux” value in series [2] (Table 8.1, within 240 minute duration, normalized for membrane area) worked out at 0.4 µg/cm^2×min. Besides, the “Maximum Flux” value in series [2] (Table 9.3) was determined as 0.4 µg/cm^2-min.
